US20080312160A1, “METHOD OF TREATING ENTERITIS, […], AND DIARRHEA FROM C. DIFFICILE WITH AN A2A ADENOSINE RECEPTOR AGONIST” (priority 2007, published 2008)
Peptide text beside a SMILES is read from it.

Key:
[1] = system: C. difficile toxin A-induced inflammation and secretion in rabbit ileal loops; assay type: in vivo, New Zealand white rabbits; conditions: rabbit, in vivo
Protocol: Materials and Methods: New Zealand white rabbits weighing about 2 kg are fasted overnight. Under anesthesia with ketamine (60-80 mg/kg) and xylazine (5-10 mg/kg) administered intramuscularly, a midline abdominal incision is performed to expose the small bowel. After the ileum is flushed, four-cm loops are ligated using double ties with a 1 cm interval between loops. Each of the control loops is injected intraluminally with 1 mL solution of PBS with either C. difficile toxin A (toxin A) (Techlab, Blacksburg, Va.) at 10 μg/mL. Loops from another set of rabbits are treated with the adenosine A2A agonists, JMR 193 (ATL 193) (10 nM, 100 nM, or 1 uM doses) or ATL 146e ([…], 100 nM, 1 uM doses) immediately before the enterotoxin is administered. In addition a rabbit is treated with A2A agonist, ATL 313 (100 nM), alone and another rabbit treated with ATL 313 with alanyl-glutamine (25 mM). After 5 hours of incubation, the ligated small intestinal loops are removed. The length of each ligated ileal segment is measured and intraluminal fluid was quantified. Volume to length ratio, V/L (mL/cm), per loop is calculated. Samples of intestinal stained with hematoxylin-eosin and graded from 0 (none) to 4 (worst) based on the degree of mucosal disruption, increase in cellularity and intensity of vascular congestion.

[2] = system: Toxin A-induced secretion in rabbit ileal loops; assay: Rabbit ileal loops, toxin A-induced secretion (Example 3); assay type: in vivo, New Zealand white rabbits
[3] = system: Toxin A-induced secretion in rabbit ileal loops; assay: as above; assay type: in vivo, New Zealand white rabbits; remark: listed apart in the source
From the text: Rabbit Ileal Loops: The animal experiment protocol was approved by the Animal Care and Use Committee at the University of Virginia. Eight New Zealand white rabbits weighing between 2.5-3 kg were used for this experiment. Each rabbit was fasted overnight. On the day of the experiment, the rabbits were anesthetized intramuscularly using a ketamine and xylazine solution in a 2:1 ratio. An intravenous line was placed in the ear vein of each rabbit for administration of the adenosine analog, ATL 370 (Adenosine Therapeutics) or a phosphate buffered saline placebo (PBS). Once anesthetized, a midline abdominal incision was made and the ileum was exposed. A measured amount of ileum was injected with 5 mL of PBS to flush any remaining fecal material. After the ileum was flushed, 10 loops of 2.5-5 cm each were ligated using double ties, with 0.5-1 cm of space between each loop.
Once the bowel was exposed and ligated, each rabbit received a 250 μL IV injection of PBS (Toxin A and Toxin A/Alanyl glutamine groups) or 1.5 ug/250 μL of ATL 370 (Toxin A/Adenosine and Toxin A/Adenosine/Alanyl-glutamine groups). An additional dose of either PBS or ATL 370 was administered 2 hours after the first dose for a total of 2 doses. Each dose was followed by a 250-500 μL heparin saline injection to prevent the IV from clotting.
A total of 79 loops were studied, of which 15 loops from 8 animals served as controls. Each of the control loops were injected intraluminally with 1 mL of a sterile PBS solution. The remaining 64 loops were injected intraluminally with 20 μg/500 μL of Toxin A (TechLab) and combined with either 500 μL PBS (Toxin A and Toxin A/Adenosine groups) or 500 μL of a […], 30 mM, 10 mM, or 3 mM alanyl-glutamine solution (Toxin A/Alanyl-glutamine and Toxin A/Adenosine/Alanyl-glutamine groups). The ileal loops were replaced intraperitoneally and the abdomimal incision was sutured. Sedation continued throughout the procedure and were euthanized after 4 hours.
Measurement of intestinal secretion: After 4 hours of incubation, the animals were euthanized and the ligated loops were immediately removed. The length of each loop was measured and incised and the intraluminal secretion was quantified. The volume to length ratio (V:L) was measured as milliliters per centimeter per loop. The gross description of intestinal fluid (serous, serosanguinous, hemorrhagic or purulent) was documented.

[4] = system: Clostridium difficile toxin A (TxA)-induced histological alterations; assay: Histological grading of ileal inflammation, murine ileal loops; assay type: in vivo, mice
Protocol: (§1) Mice were fasted overnight, but allowed access to water, and then anesthetized with ketamine and xylazine (60 and 5 mg/Kg intramuscularly, respectively). Through a midline laparotomy, one 4-cm ileal loop was ligated and injected with either 0.1 ml of PBS pH 7.4 (control) or buffer containing TxA (1-10 μg). The abdomen was closed, and the animals were allowed to regain consciousness. Three hours after administration of TxA, mice were sacrificed and the intestinal loops were removed. The loop length, weight, and fluid volume were recorded. A portion of the loop was frozen at −70° C. for measurement of myeloperoxidase (MPO) and ADA activities and TNF-α concentration. The remaining tissue was fixed in 10% formalin and embedded in paraffin, and sections were stained with hematoxylin and eosin for histological grading of ileal inflammation. Some mice were injected with ATL 313 ([…] final concentration) immediately followed by PBS or TxA (5 μg); another group was injected with ZM241385 (5 nM), the selective A2A AR antagonist, immediately followed by PBS or ATL 313 (5 nM)+TxA (5 μg) in the ileal loop. In another experiment, TxA (5 μg) was injected into the ileal loop, the abdomen was closed, and, 30 min later, the abdomen was reopened and ATL 313 (5 nM) administered.
The severity of inflammation was scored in coded slides by a pathologist on a scale of 1 (mild) to 3 (severe) for epithelial damage, edema, and neutrophil infiltration.

[5] = system: murine ileal loops injected with Clostridium difficile toxin A (TxA); assay: TxA-induced enteritis in ligated murine ileal loops: loop weight and secretion volume; assay type: in vivo, mice
Protocol: For this study, 174 male Swiss mice, 25-30 g body weight, from the animal colony of the Federal University of Ceara were used. The animals received water and food ad libitum.
as §1

[6] = system: Clostridium difficile toxin A-induced TNF-α production; assay: Quantification of TNF-α by ELISA in ileal tissue; assay type: in vivo, mice; conditions: ZM241385 + ATL 313 + TxA
Protocol: as §1, with “In another experiment, TxA (5 μg) was injected into the ileal loop, the abdomen was closed, and, 30 min later, the abdomen was reopened and ATL 313 (5 nM) administered.” left out
Ileal tissue was harvested from animals in order to measure TNF-α concentration by enzyme-linked immunosorbent assay (ELISA). The results are expressed as pg/mL of TNF-α.

[7] = ZM241385 5 nM + ATL 313 5 nM + TxA 5 μg

For `CCNC(=O)C1OC(n2cnc3c(N)nc(C#CCC4CCC(C(=O)OC)CC4)nc32)C(O)C1O` (stereo not drawn) [ATL 146e, 4-{3-[6-Amino-9-(5-ethylcarbamoyl-3,4-dihydroxy-tetrahydro-furan-2-yl)-9H-purin-2-yl]-prop-2-ynyl}-cyclohexanecarboxylic acid methyl ester], the “inflammation induced by toxin A (histology score 0 to 4)” value [1] was “reduced” and the “toxin A-induced secretion (volume to length ratio)” value [1] was “not consistently ameliorated”.
With `Nc1nc(C#CCC2CCN(C(=O)Oc3ccc(Cl)cc3)CC2)nc2c1ncn2C1OC(C(=O)NC2CC2)C(O)C1O` (stereo not drawn) [ATL 370, 4-{3-[6-Amino-9-(5-cyclopropylcarbamoyl-3,4-dihydroxy-tetrahydro-furan-2-yl)-9H-purin-2-yl]-prop-2-ynyl}-piperidine-1-carboxylic acid 4-chloro-phenyl ester] the “V:L ratio” value ([2]; ATL 370 IV + toxin A + alanyl-glutamine 100 mM, n=4, p<0.001 vs toxin A) was 0.05 mL/cm, the “V:L ratio” value ([3]; ATL 370 IV 1.5 ug x 2 doses + intraluminal toxin A only, n=8, p=0.35 vs toxin A) was 0.44 mL/cm and the “V:L ratio” value ([3]; ATL 370 IV + toxin A + alanyl-glutamine 3 mM) was 0.21 mL/cm. For the same molecule, the “V:L ratio” value ([3]; ATL 370 IV + toxin A + alanyl-glutamine 10 mM) was 0.20 mL/cm, the “V:L ratio” value ([3]; ATL 370 IV + toxin A + alanyl-glutamine 30 mM) was 0.14 mL/cm and the loops purulent ([3]; ATL 370 IV + toxin A + alanyl-glutamine, all doses (7/16)) was 44%. For the same molecule, the “number of hemorrhagic loops” value ([3]; ATL 370 IV + toxin A + alanyl-glutamine, all doses (16 loops)) was “one” and the “loops either hemorrhagic or purulent” value ([3]; ATL 370 IV + toxin A only (10/16)) was 63%.
For `CCNC(=O)C1OC(n2cnc3c(N)nc(C#CCC4CCC(COC(C)=O)CC4)nc32)C(O)C1O` (stereo not drawn) [JMR 193, Acetic acid 4-{3-[6-amino-9-(5-ethylcarbamoyl-3,4-dihydroxy-tetrahydro-furan-2-yl)-9H-purin-2-yl]-prop-2-ynyl}-cyclohexylmethyl ester], the “inflammation induced by toxin A (histology score 0 to 4)” value [1] was “reduced” and the “toxin A-induced secretion (volume to length ratio)” value [1] was “not consistently ameliorated”.
With `Nc1nc(NCCc2ccc(O)cc2)nc2nc(-c3ccco3)nn12` [ZM241385, 4-[2-(7-Amino-2-furan-2-yl-[1,2,4]triazolo[1,5-a][1,3,5]triazin-5-ylamino)-ethyl]-phenol, reference compound] the median injury score ([4]; ZM241385 + ATL 313 + TxA, median, range) was 2.5, the median injury score ([4]; compound alone, no TxA, median(range)) was 0(0-0) and the “secretion volume/ileal loop length ratio” value [5, 7] was “significantly reversed the protective effect of ATL 313”. For the same molecule, the “weight/ileal loop length ratio” value [5, 7] was “significantly reversed the protective effect of ATL 313”, the “secretion volume/ileal loop length” value ([5]; ZM241385 alone, no TxA, PBS=1.25±1.25) was 0.0 ± 0.0 µL/cm and the weight/ileal loop length ([5]; ZM241385 alone, no TxA, PBS=34.5±3.2) was 19.9 ± 0.9 mg/cm. For the same molecule, the “TNF-α production in ileal tissue” value [6] was “blocked ATL313 action”.
With `C[C@H](N)C(=O)N[C@@H](CCC(N)=O)C(=O)O` [alanyl-glutamine] (H-Ala-Gln-OH) the “V:L ratio” value ([2]; toxin A mixed with alanyl-glutamine 100 mM, intraluminal, 4 hours) was 0.44 mL/cm, the “V:L ratio” value ([3]; toxin A mixed with alanyl-glutamine 3 mM, intraluminal, 4 hours) was 0.96 mL/cm and the “V:L ratio” value ([3]; toxin A mixed with alanyl-glutamine 10 mM, intraluminal, 4 hours) was 0.84 mL/cm. For the same molecule, the “V:L ratio” value ([3]; toxin A mixed with alanyl-glutamine 30 mM, intraluminal, 4 hours) was 0.67 mL/cm and the “loops hemorrhagic, purulent, or a combination of the two” value ([3]; toxin A/alanyl-glutamine loops (11/15)) was 73%.
